From paper PMC8071248, “Characterization of Dog Glutathione Transferase P1-1, an Enzyme Relevant to Veterinary Medicine” (International Journal of Molecular Sciences, 2021)

How the values were obtained:
[1] = molecular target: T1, dog GST P1-1 (Canis lupus familiaris, UniProt A0A8I3QRM6); type: biochemical; conditions: compound as substrate with GSH; 30 °C; substrate-specific concentrations and pH
Procedure: The purified dog GST P1-1 enzyme was assayed spectrophotometrically with various substrates representing different types of chemical reactions, including substitution, reduction, addition, and isomerization.
Activity measurements with alternative substrates were performed spectrophotometrically on a Shimadzu (UV-250 1 PC) instrument. All measurements were conducted at 30 °C and in a 1 mL quartz cuvette, except for the alkenals, which were measured in a 0.5 mL quartz cuvette with a 5 mm light path. The conditions used with the final concentrations in the cuvette were as follows. CDNB: (Δε340 nm = 9600 cm^−1 M^−1), 1 mM GSH, 1 mM CDNB (dissolved in ethanol), measured at pH 6.5 in buffer A (0.1 M NaH2PO4/Na2HPO4 with 1 mM EDTA); CuOOH: (Δε340 nm = −6200 cm^−1 M^−1), 1 mM GSH, 1.5 mM CuOOH (dissolved in acetonitrile), 0.1 mM NADPH, 0.3 units glutathione reductase, measured at pH 7.0 in buffer A; Alkenals: (Δε225 nm = −19,200 cm^−1 M^−1), 0.5 mM GSH, 0.1 mM alkenals (dissolved in acetonitrile), measured at pH 6.5 in buffer A; EA: (Δε270 nm = 5000 cm^−1 M^−1), 0.25 mM GSH, 0.2 mM EA (dissolved in acetonitrile), measured at pH 6.5 in buffer A; AD: (Δε248 nm = 16,300 cm^−1 M^−1), 1 mM GSH, 0.1 mM AD (dissolved in methanol), measured at pH 8.0 in 0.025 M NaH2PO4/Na2HPO4 with 1 mM EDTA; PEITC: (Δε274 nm = 8890 cm^−1 M^−1), BITC: (Δε274 nm = 9250 cm^−1 M^−1), AITC: (Δε274 nm = 7450 cm^−1 M^−1), PITC: (Δε274 nm = 8350 cm^−1 M^−1), cHITC (Δε274 nm = 8520 cm^−1 M^−1), 1 mM GSH, 0.4 mM ITC (dissolved in acetonitrile), measured at pH 6.5 in buffer A.

[2] = molecular target: T1, dog GST P1-1; test: biochemical; type: biochemical; conditions: for IC50: 1 mM GSH and 0.4 mM benzyl isothiocyanate as substrates, standard assay conditions
[3] = tested on: Human GST P1-1/Ile105; set-up: method as in PMID 9600848; conditions: compound as substrate; cited from earlier work
[4] = molecular target: Cys48 (UniProt position 48, SLKASCLYGQL); conditions: cited from earlier work
[5] = molecular target: T1, dog GST P1-1; test: Activation of the prodrug Telcyta by GST P1-1, TLC assay with ninhydrin staining; type: biochemical; conditions: 3 mM Telcyta, 0.25 mg/mL enzyme, pH 7.5, 37 °C, nonenzymatic background subtracted
Procedure: The prodrug Telcyta is a substrate for GSTs in a reaction releasing a multifunctional phosphorodiamidate mustard (Figure 5). The prodrug was most effectively activated by human GST P1-1 from the enzymes examined. Telcyta was tested with the dog GST P1-1 for comparison. We developed a chromatographic method to assay the reaction. Aliquots of the reaction mixture were analyzed by thin-layer chromatography (TLC), and the ninhydrin-reactive product as well as the substrate were quantified at different time points (Figure 6). Conditions were chosen to ascertain a linear response of ninhydrin staining with increasing analyte concentration. The enzymatic activity was obtained by subtracting the nonenzymatic background reaction.
Telcyta is a tripeptide derivative, which releases an alkylating agent by the action of GSTs and is converted to another tripeptide. Both substrate and product peptides are reactive with ninhydrin and the reaction can be monitored by sampling of the reaction mixture at consecutive time points. […] A background reaction was also measured in the absence of enzyme. […]
Six TLC plates (silica coated), one for each time point, were prepared and sampling occurred immediately after addition of Telcyta and every 3.5 min thereafter. The reaction was monitored over a total of 17.5 min. […]
Catalytic activity was estimated both by visual observation and by quantitative ImageJ analysis. […]

T1 sequence (A0A8I3QRM6 1-210): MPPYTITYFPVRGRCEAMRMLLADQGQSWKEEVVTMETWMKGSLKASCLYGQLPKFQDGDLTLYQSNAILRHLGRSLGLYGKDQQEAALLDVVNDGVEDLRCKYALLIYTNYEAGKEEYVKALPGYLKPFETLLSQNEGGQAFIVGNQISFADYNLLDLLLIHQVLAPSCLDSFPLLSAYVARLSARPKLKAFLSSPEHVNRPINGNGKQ

## CCCCCCCCC/C=C/C=O [trans-2-Dodecenal]
[1]
  Specific Activity, Dog GST P1-1: 0.046 ± 0.006 µmol/min/mg

## C=C(CC)C(=O)c1ccc(OCC(=O)O)c(Cl)c1Cl [Ethacrynic acid]
[1]
  Specific Activity, Dog GST P1-1: 2.05 ± 0.13 µmol/min/mg

## Nc1c(S(=O)(=O)O)cc(Nc2ccc(Nc3nc(Cl)nc(Nc4ccccc4S(=O)(=O)O)n3)c(S(=O)(=O)O)c2)c2c1C(=O)c1ccccc1C2=O [Cibacron Blue]
[2]
  IC50: 43 ± 7 nM
[2]; benzyl isothiocyanate as substrate
  Shape of inhibition curve (cooperativity): positive cooperativity

## [Cl][Sn]([c]1ccccc1)([c]1ccccc1)[c]1ccccc1 [Triphenyltin chloride]
[2]
  IC50: 3110 ± 380 nM

## CC(C)(OO)c1ccccc1 [Cumene hydroperoxide]
[3]
  Specific Activity, Human GST P1-1/Ile105: 0.03 µmol/min/mg
[1]
  Specific Activity, Dog GST P1-1: 0.07 ± 0.01 µmol/min/mg

## CCCCCC/C=C/C=O [trans-2-Nonenal]
[1]
  Specific Activity, Dog GST P1-1: 0.124 ± 0.005 µmol/min/mg

## S=C=NCc1ccccc1 [Benzyl isothiocyanate]
[3]
  Specific Activity, Human GST P1-1/Ile105: 63 µmol/min/mg
[1]
  Specific Activity, Dog GST P1-1: 39.0 ± 5.2 µmol/min/mg

## CC/C=C/C=O [trans-2-Pentenal]
[1]
  Specific Activity, Dog GST P1-1: 0.100 ± 0.002 µmol/min/mg

## Glutathione transferase P1-1 (GST P1-1, class Pi) (Homo sapiens)
[4]
  pKa: 4.2

## S=C=NC1CCCCC1 [Cyclohexyl isothiocyanate]
[3]
  Specific Activity, Human GST P1-1/Ile105: 11 µmol/min/mg
[1]
  Specific Activity, Dog GST P1-1: 1.27 ± 0.08 µmol/min/mg

## O=[N+]([O-])c1ccc(Cl)c([N+](=O)[O-])c1 [1-Chloro-2,4-dinitrobenzene]
[3]
  Specific Activity, Human GST P1-1/Ile105: 106 µmol/min/mg
[1]
  Specific Activity, Dog GST P1-1: 23.0 ± 1.3 µmol/min/mg

## NC(CCC(=O)NC(CS(=O)(=O)CCOP(=O)(N(CCCl)CCCl)N(CCCl)CCCl)C(=O)NC(C(=O)O)c1ccccc1)C(=O)O [Telcyta, γ-L-Glutamyl-α-amino-β-(2-ethyl-N,N,N′,N′-tetrakis(2-chloroethyl)phosphorodiamidate)sulfonylpropionyl-R(−)phenylglycine]
[5]
  Fold lower activity per mg of protein of dog GST P1-1 than the human enzyme: 18 fold

## C=CCN=C=S [Allyl isothiocyanate]
[3]
  Specific Activity, Human GST P1-1/Ile105: 38 µmol/min/mg
[1]
  Specific Activity, Dog GST P1-1: 1.94 ± 0.60 µmol/min/mg

## S=C=NCCc1ccccc1 [Phenethyl isothiocyanate]
[3]
  Specific Activity, Human GST P1-1/Ile105: 60 µmol/min/mg
[1]
  Specific Activity, Dog GST P1-1: 6.37 ± 1.03 µmol/min/mg

## C[C@]12CCC(=O)CC1=CC[C@@H]1[C@@H]2CC[C@]2(C)C(=O)CC[C@@H]12 [Δ^5-androstene-3,17-dione]
[3]
  Specific Activity, Human GST P1-1/Ile105: 0.01 µmol/min/mg
[1]
  Specific Activity, Dog GST P1-1: 0.014 ± 0.005 µmol/min/mg

## CCCCCCC/C=C/C=O [trans-2-Decenal]
[1]
  Specific Activity, Dog GST P1-1: 0.111 ± 0.005 µmol/min/mg

## CCCN=C=S [Propyl isothiocyanate]
[3]
  Specific Activity, Human GST P1-1/Ile105: 49 µmol/min/mg
[1]
  Specific Activity, Dog GST P1-1: 2.55 ± 0.20 µmol/min/mg
